Data taken from patent US20130172246A1, “INSULIN GLARGINE VERSUS METFORMIN FOR THE FIRST-LINE TREATMENT OF EARLY TYPE-2 DIABETES” (priority 2011, published 2013).

Test system: type 2 diabetes patients
Assay: Parameters of beta-cell function (insulin, proinsulin, C-peptide, HOMA) fasting and 2 h after test meal
Format: in vivo, human
Details: for ratio of proinsulin to C-peptide: after treatment, indicating improvement in beta-cell function; for Insulin-C-peptide ratio - change, 2 h after test meal / Insulin-C-peptide ratio - change, Fasting / Proinsulin-C-peptide ratio - change, 2 h after test meal / Proinsulin-C-peptide ratio - change, Fasting / HOMA - change / Insulin-proinsulin ratio - change, 2 h after test meal / Insulin-proinsulin ratio - change, Fasting / C-peptide - change, 2 h after test meal / C-peptide - change, Fasting / Insulin - change, 2 h after test meal / Insulin - change, Fasting / Proinsulin - change, 2 h after test meal / Proinsulin - change, Fasting / Insulin-C-peptide ratio - visit 8, 2 h after test meal / Insulin-C-peptide ratio - visit 8, Fasting / Proinsulin-C-peptide ratio - visit 8, 2 h after test meal / Proinsulin-C-peptide ratio - visit 8, Fasting / HOMA - visit 8 / Insulin-proinsulin ratio - visit 8, 2 h after test meal / Insulin-proinsulin ratio - visit 8, Fasting / C-peptide - visit 8, 2 h after test meal / C-peptide - visit 8, Fasting / Insulin - visit 8, 2 h after test meal / Insulin - visit 8, Fasting / Proinsulin - visit 8, 2 h after test meal / Proinsulin - visit 8, Fasting: per protocol; for Insulin-C-peptide ratio - change, 2 h after test meal / Insulin-C-peptide ratio - change, Fasting / Proinsulin-C-peptide ratio - change, 2 h after test meal / Proinsulin-C-peptide ratio - change, Fasting / HOMA - change / Insulin-proinsulin ratio - change, 2 h after test meal / Insulin-proinsulin ratio - change, Fasting / C-peptide - change, 2 h after test meal / C-peptide - change, Fasting / Insulin - change, 2 h after test meal / Insulin - change, Fasting / Proinsulin - change, 2 h after test meal / Proinsulin - change, Fasting: change visit 1 to visit 8; for Insulin-C-peptide ratio - change, 2 h after test meal / Insulin-C-peptide ratio - change, Fasting / Proinsulin-C-peptide ratio - change, 2 h after test meal / Proinsulin-C-peptide ratio - change, Fasting / Insulin-C-peptide ratio - visit 8, 2 h after test meal / Insulin-C-peptide ratio - visit 8, Fasting / Proinsulin-C-peptide ratio - visit 8, 2 h after test meal / Proinsulin-C-peptide ratio - visit 8, Fasting: mean; for HOMA - change / Insulin-proinsulin ratio - change, 2 h after test meal / Insulin-proinsulin ratio - change, Fasting / C-peptide - change, 2 h after test meal / C-peptide - change, Fasting / Insulin - change, 2 h after test meal / Insulin - change, Fasting / Proinsulin - change, 2 h after test meal / Proinsulin - change, Fasting / HOMA - visit 8 / Insulin-proinsulin ratio - visit 8, 2 h after test meal / Insulin-proinsulin ratio - visit 8, Fasting / C-peptide - visit 8, 2 h after test meal / C-peptide - visit 8, Fasting / Insulin - visit 8, 2 h after test meal / Insulin - visit 8, Fasting / Proinsulin - visit 8, 2 h after test meal / Proinsulin - visit 8, Fasting: mean (SD); for C-peptide - change, 2 h after test meal / C-peptide - change, Fasting / Insulin - change, 2 h after test meal / Insulin - change, Fasting / Proinsulin - change, 2 h after test meal / Proinsulin - change, Fasting / C-peptide - visit 8, 2 h after test meal / C-peptide - visit 8, Fasting / Insulin - visit 8, 2 h after test meal / Insulin - visit 8, Fasting / Proinsulin - visit 8, 2 h after test meal / Proinsulin - visit 8, Fasting: unit as in Table 4; for Insulin-C-peptide ratio - visit 8, 2 h after test meal / Insulin-C-peptide ratio - visit 8, Fasting / Proinsulin-C-peptide ratio - visit 8, 2 h after test meal / Proinsulin-C-peptide ratio - visit 8, Fasting / HOMA - visit 8 / Insulin-proinsulin ratio - visit 8, 2 h after test meal / Insulin-proinsulin ratio - visit 8, Fasting / C-peptide - visit 8, 2 h after test meal / C-peptide - visit 8, Fasting / Insulin - visit 8, 2 h after test meal / Insulin - visit 8, Fasting / Proinsulin - visit 8, 2 h after test meal / Proinsulin - visit 8, Fasting: week 36
Protocol: Below is a list of the various target parameters: • Protection of the β-cells by early insulin therapy • C-Peptide (fasting and 2 h pp after TM) • Proinsulin (fasting and 2 h pp after TM) • Glycemic variability: • Glycemic load • Standard deviation (SD), • MAGE • HbA1c • Anti-inflammatory action of insulin: • Biomarkers of subclinical inflammation (fasting and 2 h pp) • hsCRP, • PAI-1, • Leukocyte count • Back-up samples for determining • MMP9 • ADMA • Adiponectin • Effect on endothelial function • Endothelial function at ball of thumb using laser Doppler (O2C) • Effect on renal function • Microalbuminuria (albumin/creatinine ratio) • Serum creatinine • Risk of hypoglycemia • Hypoglycemic intervals (time<3 mmol glucose) during CGM over 48 hours (day 2+3 after TM) • Free fatty acids
Test meal: On the morning of the 2nd day of the CGM, there is a standardized test meal in the trial center. This test meal (TM) consists of 95 g of whole-wheat bread, 20 g of margarine, 25 g of fruit preserves, 25 g of cheese, 200 ml of orange juice, 200 ml of milk mix with banana, strawberry or cocoa with a total of 560 Kcal. Blood is taken from the patient prior to the TM (after night-time fasting period of at least 8 hours). Subsequently, the TM should be eaten within 15 min. From the 1st bite, the time is measured, and after 2 h have elapsed, a 2nd blood collection is performed. During the TM and during the two hours thereafter, the patient should move as little as possible so as not to falsify the monitoring.
• HbA1c chromatographically by HLPC (device: TOSOH A1c) • Plasma glucose by enzymatic UV test HK (device: Selectra) • Creatinine in urine by PAP test (enzyme-photometrically) (device: Selectra) • Albumin in urine (spontaneous) by immunoturbidimetric method (device: Selectra) • Microalbuminuria (calculated: albumin/creatinine ratio) • Serum creatinine enzyme-photometrically by means of creatinine PAP test (device: Selectra) • ALAT, ASAT by optimized UV method according to IFCC (device: Selectra) • Insulin by ELISA (solid-phase enzyme immunoassay; device: Anthos) • C-peptide by ELISA (solid-phase enzyme immunoassay; device: Anthos) • Proinsulin (intact) (solid-phase enzyme immunoassay; device: Anthos) • Triglycerides by GPO-PAP method (device: Selectra) • HDL cholesterol by enzymatic test (device: Selectra) • LDL cholesterol by enzymatic test (device: Selectra) • Free fatty acids by photometric method (NEFA) (device: Selektra) • hsCRP by immunoturbidimetric method (device: Selectra) • PAI-1 (plasminogen activator inhibitor active antigen) bioimmunoassay • Leukocyte count by electronic counting • Pregnancy test (urine dipstick)
In the study in the previous examples, 75 patients (45 men, 30 women, mean age: 60.7±9.2 years) were examined, whose first diagnosis of type 2 diabetes dated back to less than 5 years and whose HbA1c level was between 6.5 and 8.5%. The patients were treated with either metformin (MET, 1000 mg b.i.d. (n=3)) or insulin glargine (GLA) q.d. just before bedtime (n=3). The insulin dose was adjusted for a target plasma glucose concentration (FPG) of ≦5.6 mmol/L according to a standardized titration algorithm. At the start and end of the study, the HbA1c level and the plasma glucose, proinsulin and C-peptide concentrations were determined. […] All the patients received a standardized test meal on the second day of the continuous glucose monitoring for comparison of the interindividual postprandial (pp) glucose excursions.

Compound	ratio of proinsulin to C-peptide	Insulin-C-peptide ratio - change, 2 h after test meal	Insulin-C-peptide ratio - change, Fasting	Proinsulin-C-peptide ratio - change, 2 h after test meal	Proinsulin-C-peptide ratio - change, Fasting	HOMA - change	Insulin-proinsulin ratio - change, 2 h after test meal	Insulin-proinsulin ratio - change, Fasting	C-peptide - change, 2 h after test meal	C-peptide - change, Fasting	Insulin - change, 2 h after test meal	Insulin - change, Fasting	Proinsulin - change, 2 h after test meal	Proinsulin - change, Fasting	Insulin-C-peptide ratio - visit 8, 2 h after test meal	Insulin-C-peptide ratio - visit 8, Fasting	Proinsulin-C-peptide ratio - visit 8, 2 h after test meal	Proinsulin-C-peptide ratio - visit 8, Fasting	HOMA - visit 8	Insulin-proinsulin ratio - visit 8, 2 h after test meal	other results
CN(C)C(=N)N=C(N)N [Metformin]	significant reduction	−38956.8	−25386.1	−1668.7	−1386.3	4.4 (19.5)	3.0 (8.4)	2.9 (7.6)	−0.1 (2.0) nmol/l	−0.3 (0.8) nmol/l	−11.1 (30.2) mU/l	−2.7 (3.6) mU/l	−6.9 (14.5) pmol/l	−3.2 (4.2) pmol/l	41915.2	25456.9	2458.1	2142.4	56.3 (34.5)	24.7 (27.1)	Insulin-proinsulin ratio - visit 8, Fasting: 16.7 (17.4); C-peptide - visit 8, 2 h after test meal: 7.9 (3.4) nmol/l; C-peptide - visit 8, Fasting: 2.7 (1.1) nmol/l; Insulin - visit 8, 2 h after test meal: 50.8 (39.7) mU/l; Insulin - visit 8, Fasting: 10.0 (6.0) mU/l; Proinsulin - visit 8, 2 h after test meal: 20.4 (19.9) pmol/l; Proinsulin - visit 8, Fasting: 5.8 (4.6) pmol/l
Insulin glargine	significant reduction	−24587.4	46799.3	−2496.6	−1174.8	77.2 (98.0)	8.2 (9.4)	16.4 (12.4)	−0.6 (2.4) nmol/l	−1.2 (1.1) nmol/l	6.5 (38.4) mU/l	2.7 (6.7) mU/l	−11.1 (26.8) pmol/l	−7.6 (10.8) pmol/l	59822.8	80748.4	3578.2	3537.8	127.9 (99.3)	20.7 (11.8)	beta-cell function (early treatment, compared to standard treatment with MET): improvement in beta-cell function; Insulin-proinsulin ratio - visit 8, Fasting: 24.5 (11.7); C-peptide - visit 8, 2 h after test meal: 6.7 (3.1) nmol/l; C-peptide - visit 8, Fasting: 1.6 (0.9) nmol/l; Insulin - visit 8, 2 h after test meal: 62.6 (51.8) mU/l; Insulin - visit 8, Fasting: 14.6 (8.8) mU/l; Proinsulin - visit 8, 2 h after test meal: 26.8 (29.0) pmol/l; Proinsulin - visit 8, Fasting: 5.4 (5.0) pmol/l
